Patent US20180022750A1, “6-HYDROXYBENZOFURANYL- AND 6-ALKOXYBENZOFURANYL-SUBSTITUTED IMIDAZOPYRIDAZINES” (BAYER PHARMA AKTIENGESELLSCHAFT, priority 2014, published 2018)

Tests used:
human full-length MKNK1 [1] = molecular target: T1, human full-length MKNK1 (Homo sapiens, UniProt Q9BUB5); assay: MKNK1 kinase assay (TR-FRET, 10 μM ATP); format: biochemical; conditions: ATP 10 μM, 15 min preincubation, GST-MKNK1 (T344D)
T1 construct: GST (Glutathione-S-Transferase) (N); purchased Carna Biosciences 02-145; host or cells: insect cells (baculovirus expression system)
T1 sequence (Q9BUB5 1-424 isoform Q9BUB5-2 T344D): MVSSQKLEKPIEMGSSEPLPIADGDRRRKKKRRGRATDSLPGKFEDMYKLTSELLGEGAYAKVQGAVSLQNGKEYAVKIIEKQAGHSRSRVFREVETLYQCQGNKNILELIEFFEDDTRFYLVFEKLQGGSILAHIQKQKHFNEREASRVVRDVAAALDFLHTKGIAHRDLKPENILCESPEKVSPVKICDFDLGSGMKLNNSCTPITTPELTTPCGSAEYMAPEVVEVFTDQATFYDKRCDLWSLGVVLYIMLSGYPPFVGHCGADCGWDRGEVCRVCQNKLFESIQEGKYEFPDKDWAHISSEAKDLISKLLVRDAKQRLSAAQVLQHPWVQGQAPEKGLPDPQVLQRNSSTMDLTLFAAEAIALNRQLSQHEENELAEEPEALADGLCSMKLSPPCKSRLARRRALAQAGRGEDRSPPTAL
Source text: MKNK1-inhibitory activity of compounds of the present invention was quantified employing the MKNK1 TR-FRET assay as described in the following paragraphs.
(§1) A recombinant fusion protein of Glutathione-S-Transferase (GST, N-terminally) and human full-length MKNK1 (amino acids 1-424 and T344D of accession number BAA 19885.1), expressed in insect cells using baculovirus expression system and purified via glutathione sepharose affinity chromatography, was purchased from Carna Biosciences (product no 02-145) and used as enzyme. As substrate for the kinase reaction the biotinylated peptide biotin-Ahx-IKKRKLTRRKSLKG (C-terminus in amide form) was used which can be purchased e.g. form the company Biosyntan (Berlin-Buch, Germany).
(§2) For the assay 50 nL of a 100fold concentrated solution of the test compound in DMSO was pipetted into a black low volume 384well microtiter plate (Greiner Bio-One, Frickenhausen, Germany), 2 μL of a solution of MKNK1 in aqueous assay buffer [50 mM HEPES pH 7.5, 5 mM magnesium chloride, 1.0 mM dithiothreitol, 0.005% (v/v) Nonidet-P40 (Sigma)] was added and the mixture was incubated for 15 min at 22° C. to allow pre-binding of the test compounds to the enzyme before the start of the kinase reaction. Then the kinase reaction was started by the addition of 3 μL of a solution of adenosine-tri-phosphate (ATP, 16.7 μM=>final conc. in the 5 μL assay volume is 10 μM) and substrate (0.1 μM=>final conc. in the 5 μL assay volume is 0.06 μM) in assay buffer and the resulting mixture was incubated for a reaction time of 45 min at 22° C. The concentration of MKNK1 was adjusted depending of the activity of the enzyme lot and was chosen appropriate to have the assay in the linear range, typical concentrations were in the range of 0.05 μg/ml. The reaction was stopped by the addition of 5 μL of a solution of TR-FRET detection reagents (5 nM streptavidine-XL665 [Cisbio Bioassays, Codolet, France] and 1 nM anti-ribosomal protein S6 (pSer236)-antibody from Invitrogen [#44921G] and 1 nM LANCE EU-W1024 labeled ProteinG [Perkin-Elmer, product no. AD0071]) in an aqueous EDTA-solution (100 mM EDTA, 0.1% (w/v) bovine serum albumin in 50 mM HEPES pH 7.5).
(§3) The resulting mixture was incubated for 1 h at 22° C. to allow the formation of complex between the phosphorylated biotinylated peptide and the detection reagents. Subsequently the amount of phosphorylated substrate was evaluated by measurement of the resonance energy transfer from the Eu-chelate to the streptavidine-XL. Therefore, the fluorescence emissions at 620 nm and 665 nm after excitation at 350 nm were measured in a TR-FRET reader, e.g. a Rubystar (BMG Labtechnologies, Offenburg, Germany) or a Viewlux (Perkin-Elmer). The ratio of the emissions at 665 nm and at […] was taken as the measure for the amount of phosphorylated substrate. The data were normalised (enzyme reaction without inhibitor=0% inhibition, all other assay components but no enzyme=100% inhibition).

human full-length MKNK1 [2] = molecular target: T2, human full-length MKNK1 (Homo sapiens, UniProt Q9BUB5, T385D); assay: MKNK1 kinase high ATP assay (TR-FRET, 2 mM ATP); format: biochemical; conditions: ATP 2 mM, 15 min preincubation, GST-MKNK1 (T344D)
T2 construct: GST (Glutathione-S-Transferase) (N); purchased Carna Biosciences 02-145; host or cells: insect cells (baculovirus expression system)
T2 sequence (Q9BUB5 1-424 isoform Q9BUB5-2 T344D): as above
Procedure: MKNK1-inhibitory activity at high ATP of compounds of the present invention after their preincubation with MKNK1 was quantified employing the TR-FRET-based MKNK1 high ATP assay as described in the following paragraphs.
as §1, with “was used,” for “was used”, “e.g. from” for “e.g. form”
as §2, with “3.3 mM=>final” for “16.7 μM=>final”, “2 mM)” for “10 μM)”, “30” for “45”, “0.003 μg/mL.” for “0.05 μg/ml.”
as §3

SMILES | IC50 (human full-length MKNK1 [1]) | IC50 (human full-length MKNK1 [2])
C[C@H](CN)Oc1ccc2ncc(-c3cc4ccc(O)cc4o3)n2n1 [Example 4, 2-(6-{[(2R)-1-aminopropan-2-yl]oxy}imidazo[1,2-b]pyridazin-3-yl)-1-benzofuran-6-ol] | 49.1 nM | 42.1 nM
CC(=O)NC[C@@H](C)Oc1ccc2ncc(-c3cc4ccc(O)cc4o3)n2n1 [Example 5, N-[(2R)-2-{[3-(6-hydroxy-1-benzofuran-2-yl)imidazo[1,2-b]pyridazin-6-yl]oxy}-propyl]acetamide] | 40.2 nM | 37.7 nM
COc1ccc2cc(-c3cnc4ccc(OCC(C)(C)CN(C)C)nn34)oc2c1 [Example 7, 3-{[3-(6-methoxy-1-benzofuran-2-yl)imidazo[1,2-b]pyridazin-6-yl]oxy}-N,N,2,2-tetramethylpropan-1-amine] | 5440 nM | 14800 nM
COc1ccc2cc(-c3cnc4ccc(OCCCCN(C)C)nn34)oc2c1 [Example 9, 4-{[3-(6-methoxy-1-benzofuran-2-yl)imidazo[1,2-b]pyridazin-6-yl]oxy}-N,N-dimethylbutan-1-amine] | 434 nM | 1010 nM
CCN(CC)CCCC(C)Oc1ccc2ncc(-c3cc4ccc(OC)cc4o3)n2n1 (stereo not drawn) [Example 10, N,N-diethyl-4-{[3-(6-methoxy-1-benzofuran-2-yl)imidazo[1,2-b]pyridazin-6-yl]-oxy}pentan-1-amine] | 127 nM | 352 nM
COc1ccc2cc(-c3cnc4ccc(OCCC5CCCN5C)nn34)oc2c1 (stereo not drawn) [Example 11, 3-(6-methoxy-1-benzofuran-2-yl)-6-[2-(1-methylpyrrolidin-2-yl)ethoxy]imidazo-[1,2-b]pyridazine] | 664 nM | 1150 nM
COc1ccc2cc(-c3cnc4ccc(OCCN5CCNC5=O)nn34)oc2c1 [Example 12, 1-(2-{[3-(6-methoxy-1-benzofuran-2-yl)imidazo[1,2-b]pyridazin-6-yl]oxy}ethyl)-imidazolidin-2-one] | 410 nM | 2390 nM
COc1ccc2cc(-c3cnc4ccc(OCCCN5CCOCC5)nn34)oc2c1 [Example 13, 3-(6-methoxy-1-benzofuran-2-yl)-6-[3-(morpholin-4-yl)propoxy]imidazo[1,2-b]-pyridazine] | 567 nM | 2130 nM
COc1ccc2cc(-c3cnc4ccc(O[C@H](C)CNC(C)=O)nn34)oc2c1 [Example 14, N-[(2R)-2-{[3-(6-methoxy-1-benzofuran-2-yl)imidazo[1,2-b]pyridazin-6-yl]oxy}-propyl]acetamide] | 997 nM | 3810 nM
COc1ccc2cc(-c3cnc4ccc(O[C@H](C)CN)nn34)oc2c1 [Example 15, (2R)-2-{[3-(6-methoxy-1-benzofuran-2-yl)imidazo[1,2-b]pyridazin-6-yl]oxy}-propan-1-amine] | 1320 nM | 2820 nM

Continued, values first:

IC50 (human full-length MKNK1 [1]) | IC50 (human full-length MKNK1 [2]) | SMILES
714 nM | 2570 nM | COc1ccc2cc(-c3cnc4ccc(OCCCO)nn34)oc2c1 [Example 1, 3-{[3-(6-methoxy-1-benzofuran-2-yl)imidazo[1,2-b]pyridazin-6-yl]oxy}propan-1-ol]
864 nM | 5520 nM | COCCCOc1ccc2ncc(-c3cc4ccc(OC)cc4o3)n2n1 [Example 2, 3-(6-methoxy-1-benzofuran-2-yl)-6-(3-methoxypropoxy)imidazo[1,2-b]-pyridazine]
977 nM | 2550 nM | COc1ccc2cc(-c3cnc4ccc(OCCN)nn34)oc2c1 [Example 3, 2-{[3-(6-methoxy-1-benzofuran-2-yl)imidazo[1,2-b]pyridazin-6-yl]oxy}ethanamine]
343 nM | 913 nM | COc1ccc2cc(-c3cnc4ccc(OCCCN)nn34)oc2c1 [Example 6, 3-{[3-(6-methoxy-1-benzofuran-2-yl)imidazo[1,2-b]pyridazin-6-yl]oxy}propan-1-amine]
217 nM | 798 nM | COc1ccc2cc(-c3cnc4ccc(OCCCCN)nn34)oc2c1 [Example 8, 4-{[3-(6-methoxy-1-benzofuran-2-yl)imidazo[1,2-b]pyridazin-6-yl]oxy}butan-1-amine]
